US5637582A, “Peripheral circulation improving agent” (priority 1992, dated 1997)

Tests used:
[1] = tested on: femoral artery; experiment: Maximum increase in femoral arterial blood flow in anesthetized dogs, cumulative i.v. dosing (Experimental Example 3); assay type: in vivo, dog; details: maximum during 60 min
Experimental: (§1) Adult dogs (one group consisting of 5 dogs) were intravenously given the test compound under anesthesia and artificial respiration successively at intervals of 60 minutes so that the dose can be 10, 30, 100, 300 and 1000 μg/kg body weight, and the blood flow of femoral artery was measured with a time course. […] An increase in the femoral arterial blood flow was calculated by subtracting the blood flow before the administration of the first dose of test compound as the standard value (the base line) from that of maximum during an interval of 60 minutes after each administration.

[2] = tested on: femoral artery; experiment: Increase in femoral arterial blood flow in anesthetized dogs, cumulative i.v. dosing (Experimental Example 1); assay type: in vivo, dog; details: 60 min after administration
Experimental: as §1, with “a dog)” for “5 dogs)”, “100 and” for “100,”, “300” for “300 and 1000”, “that” for “that of maximum during an interval of”

[3] = tested on: arterial blood pressure; experiment: Change of arterial blood pressure in anesthetized dogs (Experimental Example 4); details: 100 μg/kg i.v.
Experimental: (§2) Each test compound was intravenously administered to adult dogs (one group consisting of 2 or 4 dogs) under anesthesia and artificial respiration at a dose of 100 μg/kg body weight. Femoral arterial blood flow, vertebral arterial blood flow and arterial blood pressure were measured 1, 3, 5, 10, 20 and 30 minutes after the administration. The femoral arterial blood flow and vertebral arterial blood flow were measured with an electromagnetic blood flowmeter (manufactured by Nihon Koden, MFV-2100, trade name) through a flow probe attached to the femoral artery or vertebral artery. The arterial blood pressure was measured with a pressure transducer (manufactured by Millar, MICRO-TIP, Model SPC-350) through a catheter attached to the brachial artery.
(§3) Changes of the femoral arterial blood flow, vertebral arterial blood flow and arterial blood pressure were estimated by comparing the values measured before and after the administration of the test compound.

[4] = tested on: femoral artery; experiment: Change of femoral arterial blood flow in anesthetized dogs (Experimental Example 4); assay type: in vivo, dog; details: 100 μg/kg i.v.; for Increase in femoral arterial blood flow: 10 minutes after the administration, in words; for AUC60 of the femoral arterial blood flow: 60 minutes after administration
Experimental: as §2, §3

[5] = tested on: vertebral artery; experiment: Change of vertebral arterial blood flow in anesthetized dogs (Experimental Example 4); details: 100 μg/kg i.v.
Experimental: as §2, §3

[6] = G and H: one minute after, in words

SMILES | Increase in femoral arterial blood flow ([1]; 30 μg/kg i.v.) [mL/min] | Increase in femoral arterial blood flow ([1]; 100 μg/kg i.v.) [mL/min] | Increase in femoral arterial blood flow ([1]; 300 μg/kg i.v.) [mL/min] | Increase in femoral arterial blood flow ([1]; 1000 μg/kg i.v.) [mL/min] | Increase in femoral arterial blood flow ([2]; 10 μg/kg i.v.) [mL/min] | Increase in femoral arterial blood flow ([2]; 30 μg/kg i.v.) [mL/min] | Increase in femoral arterial blood flow ([2]; 100 μg/kg i.v.) [mL/min] | Increase in femoral arterial blood flow ([2]; 300 μg/kg i.v.) [mL/min] | Arterial Blood Pressure change (side effects) ([3]; 1 min) | Arterial Blood Pressure change (side effects) ([3]; 3 min) | Arterial Blood Pressure change (side effects) ([3]; 5 min) | Arterial Blood Pressure change (side effects) ([3]; 10 min) | Arterial Blood Pressure change (side effects) ([3]; 20 min) | Arterial Blood Pressure change (side effects) ([3]; 30 min) | Femoral Arterial Blood Flow change ([4]; 1 min) | Femoral Arterial Blood Flow change ([4]; 3 min) | Femoral Arterial Blood Flow change ([4]; 5 min) | Femoral Arterial Blood Flow change ([4]; 10 min) | Increase in femoral arterial blood flow [4] | Femoral Arterial Blood Flow change ([4]; 20 min) | also measured
Cc1ccc([C@H]2Sc3cc(C)ccc3N(CCN(C)C)C(=O)[C@H]2O)cc1 [B] | 16.4 | 41.4 | 70.2 | 79.2 | 22 | 28 | 48 | 74 |  |  |  |  |  |  |  |  |  |  |  |  | Increase in femoral arterial blood flow ([1]; 10 μg/kg i.v.): 10.4 mL/min
CNCCN1C(=O)[C@@H](OC(C)=O)[C@@H](c2ccc(C)cc2)Sc2cc(C)ccc21 [C] | 6.8 | 25.6 | 44.6 | 49.0 | 6 | 19 | 50 | 65 |  |  |  |  |  |  |  |  |  |  |  |  | 
CNCCN1C(=O)[C@@H](O)[C@@H](c2ccc(C)cc2)Sc2cc(C)ccc21 [D] |  |  |  |  |  |  | 11 | 35 |  |  |  |  |  |  |  |  |  |  |  |  | 
CC(=O)O[C@H]1C(=O)N(CCN(C)C)c2ccc(C)cc2S[C@H]1c1ccc(C)cc1 [G, reference compound] |  |  |  |  |  |  |  |  | -11.0 ΔmmHg | -2.5 ΔmmHg | 1.5 ΔmmHg | 1.0 ΔmmHg | 1.0 ΔmmHg | 1.5 ΔmmHg | 30.0 Δ ml/min | 24.0 Δ ml/min | 16.0 Δ ml/min | 9.5 Δ ml/min | substantially disappeared | 7.5 Δ ml/min | effect on arterial blood pressure [3, 6]: remarkable changes; Femoral Arterial Blood Flow change ([4]; 30 min): 5.0 Δ ml/min; AUC60 of the femoral arterial blood flow [4]: 475.3 mL; Vertebral Arterial Blood Flow change (side effects) ([5]; 1 min): 26.5 Δ ml/min; Vertebral Arterial Blood Flow change (side effects) ([5]; 3 min): 18.0 Δ ml/min; Vertebral Arterial Blood Flow change (side effects) ([5]; 5 min): 11.5 Δ ml/min; Vertebral Arterial Blood Flow change (side effects) ([5]; 10 min): 7.0 Δ ml/min; Vertebral Arterial Blood Flow change (side effects) ([5]; 20 min): 3.5 Δ ml/min; Vertebral Arterial Blood Flow change (side effects) ([5]; 30 min): 2.5 Δ ml/min; effect on vertebral arterial blood flow [5, 6]: remarkable changes
COc1ccc([C@@H]2Sc3ccccc3N(CCN(C)C)C(=O)[C@@H]2OC(C)=O)cc1 [H, reference compound] |  |  |  |  |  |  |  |  | -11.5 ΔmmHg | -4.5 ΔmmHg | -2.0 ΔmmHg | -1.0 ΔmmHg | 0.0 ΔmmHg | 1.0 ΔmmHg | 38.5 Δ ml/min | 34.5 Δ ml/min | 22.5 Δ ml/min | 8.0 Δ ml/min | substantially disappeared | 1.0 Δ ml/min | Femoral Arterial Blood Flow change ([4]; 30 min): -1.5 Δ ml/min; AUC60 of the femoral arterial blood flow [4]: 300.5 mL; Vertebral Arterial Blood Flow change (side effects) ([5]; 1 min): 25.5 Δ ml/min; Vertebral Arterial Blood Flow change (side effects) ([5]; 3 min): 18.0 Δ ml/min; Vertebral Arterial Blood Flow change (side effects) ([5]; 5 min): 13.5 Δ ml/min; Vertebral Arterial Blood Flow change (side effects) ([5]; 10 min): 7.5 Δ ml/min; Vertebral Arterial Blood Flow change (side effects) ([5]; 20 min): 4.5 Δ ml/min; Vertebral Arterial Blood Flow change (side effects) ([5]; 30 min): 2.0 Δ ml/min
